Experimental data from US7351720B2, “N-ureidoalkyl-piperidines as modulators of chemokine receptor activity” (Bristol-Myers Squibb Company, priority 2003, dated 2008).

melting point: 191 °C
SMILES: CC(=O)N(C)[C@@H]1CC[C@@H](NC(=O)Nc2nc(C)cs2)[C@H](CN2CCC[C@@H](Cc3ccc(F)cc3)C2)C1 [Example 1, N-{(3S,4R)-3-[3S-(4-Fluorobenzyl)-piperidin-1-ylmethyl]-4-[3-(4-methyl-thiazol-2-yl)-ureido]-(R)-cyclohexyl}-N-methyl-acetamide]
